# Reference: publication PMC5371851 (Toxins, 2017)
# What was measured:
# [1] = test system: human gastric epithelial (GES-1) cells
# porcine IPEC-1 = conditions: pig intestine cell (IPEC-1); cited from earlier work
Compound,relative potency in reducing cell viability (fold less) [1],effect on cell viability ([1]; human),toxicity relative to DON (porcine IPEC-1),"Dm (median-effect dose, IC50 value) [1] [ppm]",EC30 (effective concentration of 30% inhibiting cell viability rate) [1],EC70 (effective concentration of 70% inhibiting cell viability rate) [1],m (slope of median-effect curves) [1],toxicity to GES-1 cells [1]
"CC(=O)O[C@@H]1C[C@]2(C)[C@@]3(CO)[C@H](O)C(=O)C(C)=C[C@H]3O[C@H]1[C@@]21CO1 [3-ADON, 3-acetyldeoxynivalenol]",ten-fold,neither D3G nor 3-ADON decreased any cell viability,less toxicity than DON,–,–,–,–,–
"CC(=O)OC[C@]12[C@H](O)C(=O)C(C)=C[C@H]1O[C@@H]1[C@H](O)C[C@@]2(C)[C@]12CO2 [15-ADON, 15-acetyldeoxynivalenol]",–,–,–,4.77,1.13,20.05,0.59,–
"CC1=C[C@H]2O[C@@H]3[C@H](O[C@@H]4O[C@H](CO)[C@@H](O)[C@H](O)[C@H]4O)C[C@](C)([C@@]2(CO)[C@H](O)C1=O)[C@]31CO1 [D3G, deoxynivalenol-3-glucoside]",–,–,–,–,–,–,–,no toxicity
"CC1=C[C@H]2O[C@@H]3[C@H](O)C[C@](C)([C@@]2(CO)[C@H](O)C1=O)[C@]31CO1 [DON, deoxynivalenol]",–,–,–,2.99,0.75,11.99,0.61,–
"CC(=O)O[C@@H]1[C@@H](O)[C@H]2O[C@@H]3C=C(C)C(=O)[C@@H](O)[C@]3(CO)[C@]1(C)[C@]21CO1 [FX, Fusarenon-X]",–,–,–,0.85,0.15,4.97,0.48,–
"CC1=C[C@H]2O[C@@H]3[C@H](O)[C@@H](O)[C@](C)([C@@]2(CO)[C@H](O)C1=O)[C@]31CO1 [NIV, Nivalenol]",–,–,–,0.58,0.08,4.36,0.42,–
